The target of test [1] is T1, PTP1B (Homo sapiens, UniProt P18031).
T1 construct: gene PTPN1
The test can be described thus: biochemical.

The target in test [2] is T2, hedgehog protein, HhC (C-terminal cholesterol-binding domain) (Drosophila melanogaster, UniProt Q02936, H329A).
T2 construct: gene hh; HhC autoprocessing mutant, C-terminal fusion to SUMO-HIS8
The test can be described thus: SPR, biotinylated cholesterol immobilized on streptavidin chip, […] Langmuir fit.

T2 sequence (Q02936 258-471 H329A): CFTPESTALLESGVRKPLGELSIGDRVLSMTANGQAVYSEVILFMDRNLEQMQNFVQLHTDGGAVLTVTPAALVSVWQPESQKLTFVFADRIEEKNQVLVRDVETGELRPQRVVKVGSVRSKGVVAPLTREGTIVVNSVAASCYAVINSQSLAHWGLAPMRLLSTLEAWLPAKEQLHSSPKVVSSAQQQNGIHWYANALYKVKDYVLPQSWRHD
T1 sequence (P18031 1-321): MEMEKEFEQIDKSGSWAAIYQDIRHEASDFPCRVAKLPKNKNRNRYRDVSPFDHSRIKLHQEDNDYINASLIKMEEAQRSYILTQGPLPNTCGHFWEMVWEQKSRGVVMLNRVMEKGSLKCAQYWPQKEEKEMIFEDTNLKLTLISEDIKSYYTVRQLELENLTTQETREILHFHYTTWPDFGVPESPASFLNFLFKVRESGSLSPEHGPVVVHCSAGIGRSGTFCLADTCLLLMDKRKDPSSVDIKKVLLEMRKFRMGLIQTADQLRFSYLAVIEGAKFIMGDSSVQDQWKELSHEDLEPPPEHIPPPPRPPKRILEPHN

For the compound `CC(CCC[C@@H](C)[C@H]1CC[C@H]2[C@@H]3CC=C4C[C@@H](O)CC[C@]4(C)[C@H]3CC[C@]12C)c1cn(CCOCCOCCOCCNC(=O)CCCCC2SCC3NC(=O)NC32)nn1` (some centres unmarked) [biotinylated cholesterol], the dissociation constant (Kd) in test [1] is around 85 nM; in test [2], around 14 nM.

(Values after paper PMC9599816, “Cholesterol Chip for the Study of Cholesterol–Protein Interactions Using SPR” (Biosensors, 2022).)
